Reference: US7811797B2, “α-isomaltosylglucosaccharide-forming enzyme, process and uses of the same” (Kabushiki Kaisha Hayashibara Seibutsu Kagaku Kenkyujo, priority 2000, dated 2010)

Tests used:
[1] = system: α-isomaltosylglucosaccharide-forming enzyme; assay: Action on saccharides (substrates), Enzyme of Strain C9; assay type: biochemical, Bacillus globisporus C9; parameters: key: −: it showed no change; +: it showed a slight reduction of the color spot of the substrate and the formation of other reaction product; ++: it showed a high reduction of the color spot of the substrate and the formation of other reaction product; +++: it showed a substantial disappearance of the substrate spot and the formation of other reaction product; conditions: two units/g substrate, substrate 2% (w/v), 30° C., pH 6.0, 24 hours, TLC
Summary of the method: (§1)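 Purified enzyme from each strain was added at 2 units/g substrate to each of 24 saccharides at 2% (w/v). Incubation ran 24 h at 30° C, pH 6.0, or pH 8.4 for the A19 enzyme. TLC compared reaction mixtures before and after incubation to show whether each substrate was acted on.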

[2] = system: α-isomaltosylglucosaccharide-forming enzyme; assay: Action on saccharides (substrates), Enzyme of Strain C11; assay type: biochemical, Bacillus globisporus C11; parameters: key: −: it showed no change; +: it showed a slight reduction of the color spot of the substrate and the formation of other reaction product; ++: it showed a high reduction of the color spot of the substrate and the formation of other reaction product; +++: it showed a substantial disappearance of the substrate spot and the formation of other reaction product; conditions: two units/g substrate, substrate 2% (w/v), 30° C., pH 6.0, 24 hours, TLC
Summary of the method: as §1

[3] = system: α-isomaltosylglucosaccharide-forming enzyme; assay: Transfer-acceptor specificity, Enzyme of Strain C9; assay type: biochemical, Bacillus globisporus C9; conditions: acceptor 1.6%, PINE-DEX #100 donor 4%, one unit/g donor, 30° C., pH 6.0, 24 hours
Summary of the method: (§2)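 Each candidate acceptor at 1.6% was combined with 4% partial starch hydrolysate donor and 1 unit/g donor (d.s.b.) of purified enzyme. Incubation ran 24 h at 30 °C, pH 6.0 for the C9, C11 and N75 enzymes and pH 8.4 for A19. Transfer products were detected by GLC for mono- and disaccharide acceptors and HPLC for trisaccharide acceptors.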

[4] = system: α-isomaltosylglucosaccharide-forming enzyme; assay: Transfer-acceptor specificity, Enzyme of Strain N75; assay type: biochemical, Bacillus globisporus N75; conditions: acceptor 1.6%, PINE-DEX #100 donor 4%, one unit/g donor, 30° C., pH 6.0, 24 hours
Summary of the method: as §2

[5] = target: T1, Salivary amylase (Homo sapiens, UniProt P0DUB6); assay: Digestion test in vitro, salivary amylase
T1 sequence (P0DUB6 16-511): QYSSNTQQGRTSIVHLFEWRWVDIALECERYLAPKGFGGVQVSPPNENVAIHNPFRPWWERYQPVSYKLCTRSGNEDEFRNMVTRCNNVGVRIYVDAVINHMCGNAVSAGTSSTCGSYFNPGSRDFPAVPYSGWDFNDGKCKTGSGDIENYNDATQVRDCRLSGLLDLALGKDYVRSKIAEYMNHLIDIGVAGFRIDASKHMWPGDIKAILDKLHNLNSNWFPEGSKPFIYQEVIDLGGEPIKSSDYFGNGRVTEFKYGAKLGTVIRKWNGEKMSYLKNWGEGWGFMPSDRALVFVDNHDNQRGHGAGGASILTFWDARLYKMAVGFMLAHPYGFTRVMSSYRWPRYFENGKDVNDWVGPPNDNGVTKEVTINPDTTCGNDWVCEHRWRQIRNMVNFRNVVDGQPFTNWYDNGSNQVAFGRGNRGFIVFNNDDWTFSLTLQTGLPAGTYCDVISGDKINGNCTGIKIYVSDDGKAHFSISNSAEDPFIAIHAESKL

[6] = system: Clostridium perfringens JCM 3816; assay type: cell-based; conditions: PYF medium with 0.5% saccharide, 37° C., four days, anaerobic

Row | SMILES | Enzymatic action, Enzyme of Strain C9 [1] | Enzymatic action, Enzyme of Strain C11 [2] | Product of transferring reaction, Enzyme of Strain C9 [3] | Product of transferring reaction, Enzyme of Strain N75 [4] | Decomposition percentage (%) by digestive enzyme [5] [%] | Assimilability [6]
1 | OC[C@@H](O)[C@@H](O[C@H]1O[C@H](CO)[C@@H](O)[C@H](O)[C@H]1O)[C@H](O)[C@@H](O)CO [Maltitol, reference compound] | − | − | ++ (a saccharide-transferred product was detected in an amount over ten percent through transfer reaction to acceptor) | ++ (a saccharide-transferred product was detected in an amount over ten percent through transfer reaction to acceptor) | 0.0 | 
2 | OCC1OC2OCC3O[C@H](O[C@H]4C(O)C(CO)OC(OCC5O[C@H](O[C@@H](C1O)C2O)C(O)C(O)[C@@H]5O)C4O)C(O)C(O)[C@@H]3O (stereo partly drawn) [Cyclotetrasaccharide, cyclo{→6)-α-D-glucopyranosyl-(1→3)-α-D-glucopyranosyl-(1→6)-α-D-glucopyranosyl-(1→3)-α-D-glucopyransoyl-(1→}] |  |  |  |  |  | − (judged negative (−) when the post culture had a pH of 6.0 or higher)
